{"source": "patent US5225410A", "about": "“Triazolyl hydrazide derivatives” (Egis Gyogyszergyar, priority 1989, dated 1993)", "key": {"Acute toxicity on mice": {"experiment": "Acute toxicity on mice", "conditions": "mouse, in vivo, po, observed 14 days", "description": "Method: Litchfield, J. T., Wilcoxon, F. W.: Pharmacol. Exp. Ther., 96, 99 (1949)\nWhite mice belonging to the CFLP strain (body weight 18 to 22 g, both male and female) were used, 6 animals for each dose. The test compounds were administered orally in a volume of 20 ml/kg. […] The mice were kept in a plastic cage at room temperature. The animals get tap water and standard mouse fodder ad libitum. The toxicity data were determined with the aid of the method of Litchfield and Wilcoxon."}, "[1]": {"tested_on": "Gastric-secretion and ulcus", "experiment": "Stomach-secretion and ulcus tests (pylorus ligature)", "assay_type": "in vivo, Wistar rats", "conditions": "3 hours before operation", "description": "Method: Shay, H., Komarov, S. A., Fels. S. S., Meranze, D., Gruenstein, M., Siplet, H.: Gastroenterology 5, 45 (1945); Adami, E., Marazzi-Ubertti, E., Tirba, C.: Arch. Int. Pharmacodyn. 147, 113 (1964)\nStarved wistar […] of 150-250 g body weight were used, 4 male and 4 female animals for each dose. On the day of the experiment the pylorus of the animals was ligatured under ether narcosis. The doses of the test compounds were administered per os, 3 hours before the operation. The control groups were treated with the carrier in identical way. 4 hours after the operation the animals were over-narcotized with ether, their stomach was removed, the stomach contents were separated and after centrifugation the volume of the gastric juices was measured, then their free-acid content and total acidity, resp., were determined by titration with 0.1N NaOH solution. The changes of the gastric mucous membrane were investigated macroscopically and characterized by an ulcus index determined with the aid of the punctuation method of Adami and coworkers."}, "[2]": {"tested_on": "experimental coronaria insufficiency", "experiment": "Antianginal effect (vasopressin-induced experimental coronaria insufficiency, ECG wave T)", "assay_type": "in vivo", "conditions": "Rattus norvegicus; rats, iv., 2 minutes prior to vasopressin", "description": "The test was carried out on rats weighing 180 to 220 g. The animals were narcotised with chloralese-urethane (70-700 mg/kg ip.). The ECG was registered with needle electrodes in standard II leading. The experimental coronaria insufficiency was induced with vasopressin (1 NE/kg i.v.). The height of wave T was measured before and after the administration of vasopressin in both the control and treated groups."}, "mice": {"tested_on": "mice", "assay_type": "in vivo", "conditions": "p.o., motility inhibiting effect", "description": "Method: Borsy, J., Csanyi, E., Lazar, I.: Arch. Int. Pharmacodyn. 124, 1-2 (1960)\nThe tests were performed on mice. Groups consisting of 3 mice each were trated perorally with different doses of the compounds to be tested. One hour after the administration the test animals were placed in a Dews equipment. In this equipment the number of interruptions of infrared beam within 30 minutes was counted."}, "Alcaligenea faecalis": {"tested_on": "Alcaligenea faecalis", "experiment": "Antimicrobial effect, agar diffusion method", "assay_type": "cell-based", "conditions": "HNCMB 140001; 500/μg/hole", "from_the_text": "(§1) In addition, the compounds according to the invention posses valuable antimicrobial effect, especially against nonfermenting Gram-negative bacteria strains."}, "Shigella sonnei": {"tested_on": "Shigella sonnei", "experiment": "Antimicrobial effect, agar diffusion method", "assay_type": "cell-based", "conditions": "HNCMB 20046; 500/μg/hole", "from_the_text": "as §1"}, "Pseudomonas aeruginosa": {"tested_on": "Pseudomonas aeruginosa", "experiment": "Antimicrobial effect, agar diffusion method", "assay_type": "cell-based", "conditions": "HNCMB 170006; 500/μg/hole", "from_the_text": "as §1"}, "[3]": {"tested_on": "Acinetobacter calcoaceticus", "experiment": "Antimicrobial effect, agar diffusion method", "assay_type": "cell-based", "conditions": "HNCMB 150001; 500/μg/hole", "from_the_text": "as §1"}, "Pseudomonas stutzeri": {"tested_on": "Pseudomonas stutzeri", "experiment": "Antimicrobial effect, agar diffusion method", "assay_type": "cell-based", "conditions": "HNCMB 173008; 500/μg/hole", "from_the_text": "as §1"}, "Salmonella enteritidus": {"tested_on": "Salmonella enteritidus", "experiment": "Antimicrobial effect, agar diffusion method", "assay_type": "cell-based", "conditions": "HNCMB 10091; 500/μg/hole", "from_the_text": "as §1"}}}
{"smiles": "CNN(C)C(=S)n1nc(N2CCOCC2)nc1N", "note": "[Example 20, 1-(5-Amino-3-morpholino-1H-1,2,4-triazol-1-yl)-N,N'-dimethyl-carbothiohydrazide]", "values": [{"measurement": "LD50 at 336 h", "setting": "Acute toxicity on mice", "result": 1000, "unit": "mg/kg"}, {"measurement": "Inhibition related to the control in %, free acid", "setting": "[1]; 50 mg/kg po.", "result": 46, "unit": "%"}, {"measurement": "Inhibition related to the control in %, gastric juice", "setting": "[1]; 50 mg/kg po.", "result": 36, "unit": "%"}, {"measurement": "Inhibition related to the control in %, total acidity", "setting": "[1]; 50 mg/kg po.", "result": 36, "unit": "%"}, {"measurement": "Inhibition related to the control in %, ulcus index", "setting": "[1]; 50 mg/kg po.", "result": 39, "unit": "%"}, {"measurement": "Inhibition related to the control in %, free acid", "setting": "[1]; 200 mg/kg po.", "result": 91, "unit": "%"}, {"measurement": "Inhibition related to the control in %, gastric juice", "setting": "[1]; 200 mg/kg po.", "result": 58, "unit": "%"}, {"measurement": "Inhibition related to the control in %, total acidity", "setting": "[1]; 200 mg/kg po.", "result": 78, "unit": "%"}, {"measurement": "Inhibition related to the control in %, ulcus index", "setting": "[1]; 200 mg/kg po.", "result": 70, "unit": "%"}]}
{"smiles": "CSc1nc(N)n(C(=S)N(C)N)n1", "note": "[Example 4, 1-(5-Amino-3-methylthio-1H-1,2,4-triazol-1-yl)-N-methyl-carbothiohydrazide]", "values": [{"measurement": "LD50 at 336 h", "setting": "Acute toxicity on mice", "result": 300, "unit": "mg/kg"}, {"measurement": "Inhibition related to the control in %, free acid", "setting": "[1]; 60 mg/kg po.", "result": 60, "unit": "%"}, {"measurement": "Inhibition related to the control in %, gastric juice", "setting": "[1]; 60 mg/kg po.", "result": 41, "unit": "%"}, {"measurement": "Inhibition related to the control in %, total acidity", "setting": "[1]; 60 mg/kg po.", "result": 50, "unit": "%"}, {"measurement": "Inhibition related to the control in %, ulcus index", "setting": "[1]; 60 mg/kg po.", "result": 67, "unit": "%"}]}
{"smiles": "CSc1nc(N)n(C(=S)NN)n1", "note": "[Example 17, 1-(5-Amino-3-methylthio-1H-1,2,4-triazol-1-yl)carbothiohydrazide]", "values": [{"measurement": "LD50 at 336 h", "setting": "Acute toxicity on mice", "result": 350, "unit": "mg/kg"}, {"measurement": "ED50", "setting": "[2]", "result": 0.84, "unit": "mg/kg"}, {"measurement": "Therapeutical index", "setting": "mice", "result": "~ 5"}]}
{"smiles": "CC(Cc1ccccc1)NCCC(c1ccccc1)c1ccccc1", "note": "(centres unmarked) [Prenylamine, reference compound]", "values": [{"measurement": "ED50", "setting": "[2]", "result": 6.5, "unit": "mg/kg"}]}
{"smiles": "CCCC(C)(COC(N)=O)COC(N)=O", "note": "[Meprobamate, reference compound]", "values": [{"measurement": "Therapeutical index", "setting": "mice", "result": 4.1}]}
{"smiles": "CN(N)C(=S)n1nc(N2CCOCC2)nc1N", "note": "[Example 1, 1-(5-Amino-3-morpholino-1H-1,2,4-triazol-1-yl)-N-methyl-carbothiohydrazide]", "values": [{"measurement": "LD50 at 336 h", "setting": "Acute toxicity on mice", "result": "> 1000", "unit": "mg/kg"}, {"measurement": "Therapeutical index", "setting": "mice", "result": "> 10"}]}
{"smiles": "CN1CCN(c2nc(N)n(C(=S)N(C)N)n2)CC1", "note": "[Example 9]", "values": [{"measurement": "LD50 at 336 h", "setting": "Acute toxicity on mice", "result": 1000, "unit": "mg/kg"}, {"measurement": "Inhibition (%)", "setting": "Alcaligenea faecalis", "result": 23, "unit": "%"}, {"measurement": "Inhibition (%)", "setting": "Shigella sonnei", "result": 19, "unit": "%"}, {"measurement": "Inhibition (%)", "setting": "Pseudomonas aeruginosa", "result": 14, "unit": "%"}, {"measurement": "Inhibition (%)", "setting": "[3]", "result": 20, "unit": "%"}, {"measurement": "Inhibition (%)", "setting": "Pseudomonas stutzeri", "result": 25, "unit": "%"}, {"measurement": "Inhibition (%)", "setting": "Salmonella enteritidus", "result": 17, "unit": "%"}]}
{"smiles": "CN/C(=N/CCSCc1nc[nH]c1C)NC#N", "note": "[Cimetidine, reference compound]", "values": [{"measurement": "Inhibition related to the control in %, free acid", "setting": "[1]; 50 mg/kg po.", "result": 24, "unit": "%"}, {"measurement": "Inhibition related to the control in %, gastric juice", "setting": "[1]; 50 mg/kg po.", "result": 22, "unit": "%"}, {"measurement": "Inhibition related to the control in %, total acidity", "setting": "[1]; 50 mg/kg po.", "result": 15, "unit": "%"}, {"measurement": "Inhibition related to the control in %, ulcus index", "setting": "[1]; 50 mg/kg po.", "result": 18, "unit": "%"}, {"measurement": "Inhibition related to the control in %, free acid", "setting": "[1]; 200 mg/kg po.", "result": 91, "unit": "%"}, {"measurement": "Inhibition related to the control in %, gastric juice", "setting": "[1]; 200 mg/kg po.", "result": 59, "unit": "%"}, {"measurement": "Inhibition related to the control in %, total acidity", "setting": "[1]; 200 mg/kg po.", "result": 71, "unit": "%"}, {"measurement": "Inhibition related to the control in %, ulcus index", "setting": "[1]; 200 mg/kg po.", "result": 72, "unit": "%"}]}
{"smiles": "NNC(=S)n1nc(N2CCOCC2)nc1N", "note": "[Example 16, 1-(5-Amino-3-morpholino-1H-1,2,4-triazol-1-yl)carbothiohydrazide]", "values": [{"measurement": "LD50 at 336 h", "setting": "Acute toxicity on mice", "result": 1000, "unit": "mg/kg"}, {"measurement": "ED50", "setting": "[2]", "result": 0.7, "unit": "mg/kg"}]}
